Test results from US20070218105A1, “Topical Treatment with NGF and DHA in Damaged Corneas” (priority 2004, published 2007).
“And” between values parts separate entries of the source, which are not always exact repeats. Equal values may be shown once.

Key:
Assay type in all cases: in vivo, New Zealand albino rabbits
[1] = tested on: sub-basal and epithelial nerve bundles; assay: Class III β-tubulin staining of sub-basal and epithelial nerve bundle area after PRK; details: 8 weeks after PRK
Description: (§1) Twenty-one New Zealand albino rabbits were divided in 4 groups. The three experimental groups consisted of 6 rabbits each. The control group had only 3 rabbits. The rabbits within each of the four groups were randomized to receive twice-weekly topical treatments through 72-hour collagen shields (Oasis Medical Inc.; Glendora, Calif.) for a total of eight weeks. The four treatments were as follows: (1) 0.1 μg NGF (25 μl) plus 100 μl phosphate buffered saline (PBS); (2) 100 μg DHA (100 μl) plus 25 μl of PBS; (3) 0.1 μg NGF (25 μl) plus 100 μg DHA (100 μl); and (4) 125 μl of PBS with albumin (control). […]
(§2) Statistical analyses were performed using the Statistical Analysis System (SAS) software version 9.0 (SAS Institute, Cary, N.C.). The tear secretion tests (Schirmer, tear break-up time and rose bengal staining) and density of nerve areas were analyzed using a repeated measures design in the analysis of variance (ANOVA). The differences in the tear secretion tests between the four treatment groups were analyzed at each time point. The effect of the various treatments on tubulin III-, CGRP- and SP-positive epithelial and sub-basal nerve areas was evaluated with a multivariate test. […]
(§3) Rabbits were humanely euthanized at 8 weeks post-PRK surgery using an intravenous overdose of pentobarbital. […] Each section was evaluated with hematoxylin and eosin (H&E) stain and by immuno-histochemical analysis. […]

[2] = tested on: Rabbit Corneas; assay: Rose bengal staining after PRK; details: first postoperative month (30 days after PRK)
Description: Twenty-one New Zealand albino rabbits weighing 1.5 to 2.0 kg were obtained from a commercial supplier and were treated in accordance with the guidelines of the Association for Research in Vision and Ophthalmology. Each rabbit received intramuscular xylazine (10 mg/kg) and ketamine hydrochloride (50 mg/kg) anesthesia. Tetracaine eye drops were used as topical anesthesia. Tear secretion tests (e.g., tear break-up time, Schirmer's test, and rose bengal staining) were performed preoperatively under general anesthesia. Each rabbit received a unilateral PRK laser treatment. The corneal epithelium was removed with an epithelial scrubber (Katena Inc, Denville, N.J.). An excimer laser ablation to correct −5 diopters of myopia using a 6.5 mm optical zone (Lasersight Technologies, Inc., Winter Park, Fla.) was performed. […]
as §2

[3] = tested on: corneal epithelium; assay: Ki-67 immunostaining of proliferating cells in corneal epithelium after PRK; details: 8 weeks after PRK
Description: as §1, §3
Photographs of the tissue sections were acquired using MetaVue version 5.0r3 (Universal Imaging Corp.; Downingtown, Pa.) and saved as a TIFF file. (Data not shown) The tubulin III-, CGRP- and SP-positive tissue nerve areas and the percentage of Ki-67 cells were calculated with respect to the total area using the image analysis program Image Pro Plus 4.5 (Media Cybernetics Inc., Silver Spring, Md.). Sub-basal and epithelial nerve areas were measured in all groups eight weeks after PRK using anti-class III β tubulin, CGRP and SP monoclonal antibodies. […]

[4] = tested on: Rabbit Corneas; assay: Tear break-up time after PRK; details: for Tear Break-Up Time: mean ± Standard Error
Description: (§4) Twenty-one New Zealand albino rabbits weighing 1.5 to 2.0 kg were obtained from a commercial supplier and were treated in accordance with the guidelines of the Association for Research in Vision and Ophthalmology. Each rabbit received intramuscular xylazine (10 mg/kg) and ketamine hydrochloride (50 mg/kg) anesthesia. Tetracaine eye drops were used as topical anesthesia. Tear secretion tests (e.g., tear break-up time, Schirmer's test, and rose bengal staining) were performed preoperatively under general anesthesia. Each rabbit received a unilateral PRK laser treatment. The corneal epithelium was removed with an epithelial scrubber (Katena Inc, Denville, N.J.). An excimer laser ablation to correct −5 diopters of myopia using a 6.5 mm optical zone (Lasersight Technologies, Inc., Winter Park, Fla.) was performed. The eye was washed with balanced salt solution. Lubricating eye drops and an ophthalmic solution of 0.3% ofloxacin eye drops (Allergan Inc, Irvine, Calif.) were used postoperatively. Unless otherwise indicated, all chemicals were purchased from Sigmna Chemical Co. (St. Louis, Mo.).
Twenty-one New Zealand albino rabbits were divided in 4 groups. The three experimental groups consisted of 6 rabbits each. The control group had only 3 rabbits. The rabbits within each of the four groups were randomized to receive twice-weekly topical treatments through 72-hour collagen shields (Oasis Medical Inc.; Glendora, Calif.) for a total of eight weeks. The four treatments were as follows: (1) 0.1 μg NGF (25 μl) plus 100 μl phosphate buffered saline (PBS); (2) 100 μg DHA (100 μl) plus 25 μl of PBS; (3) 0.1 μg NGF (25 μl) plus 100 μg DHA (100 μl); and (4) 125 μl of PBS with albumin (control). In all animals, a tarsorrhaphy was performed on the treated eyes, and the eyes were opened only twice a week to introduce a new collagen shield.
Statistical analyses were performed using the Statistical Analysis System (SAS) software version 9.0 (SAS Institute, Cary, N.C.). The tear secretion tests (Schirmer, tear break-up time and rose bengal staining) and density of nerve areas were analyzed using a repeated measures design in the analysis of variance (ANOVA). The differences in the tear secretion tests between the four treatment groups were analyzed at each time point. The effect of the various treatments on tubulin III-, CGRP- and SP-positive epithelial and sub-basal nerve areas was evaluated with a multivariate test. Comparisons among the four treatments groups were made using adjusted least square means with alpha levels corrected by a simulation method.
Tear secretion tests (tear break-up time, Schirmer's test and rose bengal staining) were performed every 15 days over the 8-week period following PRK. All the tests were performed with general anesthesia. […]

[5] = tested on: Rabbit Corneas; assay: Schirmer's test (tear secretion) after PRK; details: mean ± Standard Error
Description: as §4
Twenty-one New Zealand albino rabbits were divided in 4 groups. The three experimental groups consisted of 6 rabbits each. The control group had only 3 rabbits. The rabbits within each of the four groups were randomized to receive twice-weekly topical treatments through 72-hour collagen shields (Oasis Medical Inc.; Glendora, Calif.) for a total of eight weeks. […]
as §2

For `CC/C=C\C/C=C\C/C=C\C/C=C\C/C=C\C/C=C\CCC(=O)O` [DHA, docosahexaenoic acid], the “average ratio of sub-basal tubulin-positive nerve bundle area to total area” value ([1]; FIG. 2A) was roughly 1.2, the “ratio of the tubulin positive nerve bundle area to the total epithelial area” value ([1]; epithelial layer, FIG. 2B) was “no significant effect” and the “eyes with positive rose bengal staining” value [2] was 33%. The “percentage of Ki-67 positive epithelial cells” value [3] was 6%, the “tear break-up time measurement” value ([4]; 1 week postoperative) was 14.5 s and the “Tear Break-Up Time” value ([4]; 15 Days after PRK) was 14.5 ± 6.2 s. The “Tear Break-Up Time” value ([4]; 30 Days (1 month) after PRK) was 14.0 s and 14.0 ± 4.8 s, the “Tear Break-Up Time” value ([4]; 45 Days after PRK) was 14.0 ± 4.0 s and the “Schirmer's Test” value ([5]; 15 Days after PRK) was 10 mm and 10.0 ± 3.7 mm. For the same compound, the “Schirmer's Test” value ([5]; 30 Days (1 month) after PRK) was 11.5 mm and 11.5 ± 3.4 mm and the “Schirmer's Test” value ([5]; 45 Days after PRK) was 12.5 ± 2.3 mm.
